Experimental data taken from paper PMC8800111 (The Journal of Biological Chemistry, 2021).

Key:
[1] = biological target: proteins of U3A human fibrosarcoma cells (4462 proteins detected) (Homo sapiens, UniProt P35232); assay type: cell-based; conditions: protein PHB; U3A cells
[2] = biological target: proteins of U3A human fibrosarcoma cells (4462 proteins detected) (Homo sapiens, UniProt Q9NXV2); assay type: cell-based; conditions: protein KCTD5, U3A cells
DHFR [3] = biological target: T1, DHFR (Homo sapiens, UniProt P00374); experiment: Cellular thermal shift assay (CETSA) in U3A cell lysate; assay type: binding; conditions: 10 μM, 10 min
T1 sequence (P00374 1-187): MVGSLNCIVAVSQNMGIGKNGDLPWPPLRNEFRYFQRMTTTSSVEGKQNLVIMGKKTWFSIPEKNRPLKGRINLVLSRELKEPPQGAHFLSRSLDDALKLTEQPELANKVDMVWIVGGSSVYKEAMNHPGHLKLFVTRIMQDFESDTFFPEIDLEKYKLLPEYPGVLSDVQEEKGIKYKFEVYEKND
Method: (§1) Protein abundance was measured by immunoblotting and band quantification.
(§2) U3A cells were cultured in DMEM (Thermo Fisher Scientific) with 10% heat-inactivated fetal bovine serum and 1% penicillin/streptomycin. […] Cells were washed once with PBS, harvested using trypsin, and centrifuged at 300g. The pellet was resuspended in Tris-buffered saline (TBS) supplemented with cOmplete protease inhibitor cocktail (Roche), aliquoted (50 μl; 8 × 10^5 cells per temperature) into PCR strip tubes, and heated at the indicated temperature in a Veriti Thermal Cycler (Applied Biosystems) for 3 min, then cooled for another 3 min at room temperature. Cells were then lysed by freeze–thawing three times with 3-min incubations in an ethanol/dry ice bath and a water bath at 37 °C. The lysates were then centrifuged at 17,000g for 20 min at 4 °C to remove cellular debris and pelleted protein aggregates. Supernatants (40 μl) were transferred to new tubes and prepared for immunoblotting. […] Briefly, U3A cells in exponential growth rate were collected, resuspended in TBS supplemented with cOmplete protease inhibitor cocktail (Roche), lysed by freeze–thaw cycle, and centrifuged at 17,000g for 20 min at 4 °C. […] Band intensities were quantified using Fiji ([42]) and then plotted and fitted in GraphPad Prism (GraphPad Software, Inc) to obtain apparent Tagg values.

DHFR [4] = biological target: T1, DHFR; experiment: Cellular thermal shift assay (CETSA) in intact U3A cells; assay type: cell-based; conditions: 10 μM, 10 min
Method: as §1, §2

CHCHD2 = CHCHD2 (Homo sapiens, UniProt Q9Y6H1); experiment: as above; assay type: cell-based; conditions: 10 μM, 10 min
Method: as §1
U3A cells were cultured in DMEM (Thermo Fisher Scientific) with 10% heat-inactivated fetal bovine serum and 1% penicillin/streptomycin. […] Cells were washed once with PBS, harvested using trypsin, and centrifuged at 300g. The pellet was resuspended in Tris-buffered saline (TBS) supplemented with cOmplete protease inhibitor cocktail (Roche), aliquoted (50 μl; 8 × 10^5 cells per temperature) into PCR strip tubes, and heated at the indicated temperature in a Veriti Thermal Cycler (Applied Biosystems) for 3 min, then cooled for another 3 min at room temperature. Cells were then lysed by freeze–thawing three times with 3-min incubations in an ethanol/dry ice bath and a water bath at 37 °C. The lysates were then centrifuged at 17,000g for 20 min at 4 °C to remove cellular debris and pelleted protein aggregates. Supernatants (40 μl) were transferred to new tubes and prepared for immunoblotting. […] DHFR stabilization was evaluated with superoxide dismutase 1 as a thermostable loading control. Band intensities were quantified using Fiji ([42]) and then plotted and fitted in GraphPad Prism (GraphPad Software, Inc) to obtain apparent Tagg values.
(A) DHFR protein levels in Fig 2C were quantified and plotted. […] Soluble protein levels were analyzed by immunoblotting with the indicated antibodies. […]

U3A cells = experiment: Cellular ATP levels (CellTiter-Glo); assay type: cell-based, human; conditions: 10 μM, 6 h
[5] = Apoptosis assay (FITC annexin V / propidium iodide flow cytometry); assay type: cell-based; conditions: human; U3A cells, 6 h time point, same treatment as ATP assay; read-out: viable cells
[6] = system: STAT3 target genes in U3A cells; experiment: STAT3 target gene expression by qRT-PCR in U3A cells; assay type: cell-based, human; conditions: 10 μM 1 h, OSM 90 min
[7] = system: STAT3 target genes in SKBR3 cells; experiment: STAT3 target gene expression by qRT-PCR in SKBR3 cells; assay type: cell-based, human; conditions: 10 μM 1 h, OSM 60 min
Method: Cells were stimulated with 10 ng/ml interleukin 6 (Peprotech) or 10 ng/ml OSM (Peprotech). Cells were stimulated for 15 min for whole cell lysate immunoblotting, 60 to 90 min for qRT–PCR, and 5 to 6 h for luciferase reporter assays.
Total RNA was extracted from cells using the RNeasy Mini Kit (Qiagen). Complementary DNA was generated using the TaqMan Reverse Transcription Reagents (Invitrogen). qPCR was performed in triplicate or quadruplicate using the Power SYBR Green PCR Master Mix (Invitrogen) on a 7500 Real-Time PCR System (Applied Biosystems) or a QuantStudio 6 Flex Real-Time PCR System (Applied Biosystems). Specificity of amplification was confirmed by melting curve analysis. Cycle threshold (CT) values for target genes were normalized to the endogenous reference gene GAPDH. Primer sequences (Table S3) were designed from the University of California Santa Cruz genome browser reference mRNA sequences using Primer3 ([43]).

[8] = system: nuclear pSTAT3 and total STAT3 in U3A cells; experiment: Nuclear and cytoplasmic fractionation immunoblotting in OSM-stimulated U3A cells; assay type: cell-based, human; conditions: 10 μM 1 h, 10 ng/ml OSM 30 min
Method: It should be noted that, given the variability inherent in chromatin immunoprecipitation (IP), few of the individual changes in binding reached statistical significance. However, the trend in each of the five genes was identical.
B, MDA-MB-468 cells were treated with 5 μM PYR for 24 h. Nuclear and cytoplasmic fractions were analyzed by immunoblotting with the indicated antibodies. PARP and tubulin were used as nuclear and cytoplasmic markers, respectively. C, U3A human fibrosarcoma cells stably expressing STAT3-dependent luciferase were pretreated with 10 μM PYR for 1 h and stimulated with 10 ng/ml oncostatin M (OSM) for 30 min. Nuclear and cytoplasmic fractions were analyzed by immunoblotting with the indicated antibodies. […] D, SKBR3 cells were treated with 10 μM PYR for 1 h, stimulated with 10 ng/ml leukemia inhibitory factor (LIF) for 30 min, and analyzed by chromatin immunoprecipitation with antibodies to STAT3 and RNA pol II (pol II). Binding at the indicated target genes was assessed by quantitative RT–PCR. Data are expressed as percent of input. […]
Cells were lysed on ice for 15 min in either radioimmunoprecipitation assay lysis buffer (Boston BioProducts) or EBC lysis buffer (50 mM Tris [pH 8.0], 250 mM NaCl, and 0.5% Nonidet-P40 [NP-40]) containing phosphatase and complete protease inhibitors (Roche). […] Immunoblots were developed, and band intensity was quantified using Fiji ([42]).

[9] = system: STAT3 DNA binding in SKBR3 cells; experiment: Chromatin immunoprecipitation, STAT3 binding at target genes; assay type: cell-based, human; conditions: 10 μM 1 h, 10 ng/ml LIF 30 min
Method: (§3) Nuclei were centrifuged at 660g for 5 min at 4 °C and lysed in 300 μl of nuclear lysis buffer (50 mM Tris [pH 8.1], 10 mM EDTA, 1% SDS, and phosphatase and protease inhibitors). […] Lysate was then added to 60 μl of Protein A/G PLUS agarose beads (catalog no.: 2003; Santa Cruz Biotechnology) and rotated for 4 to 6 h at 4 °C. […] Beads were resuspended in 150 μl elution buffer (100 mM sodium bicarbonate and 1% SDS) and incubated overnight at 65 °C. DNA was purified using a PCR Purification Kit (Qiagen) according to the manufacturer's protocol. qPCR was performed using the indicated primers (Table S3). Results were normalized to input.

[10] = system: RNA pol II recruitment in SKBR3 cells; experiment: Chromatin immunoprecipitation, RNA polymerase II binding at target genes; assay type: cell-based, human; conditions: 10 μM 1 h, 10 ng/ml LIF 30 min
Method: as §3

DHFR [11] = biological target: T1, DHFR
DHFR [12] = biological target: T1, DHFR; conditions: DHFR enzymatic IC50
STAT5 = conditions: original high-throughput screen; cited from earlier work
STAT3-dependent genes = system: STAT3-dependent genes; set-up: method as in PMID 33373063; conditions: chronic lymphocytic leukemia; cited from earlier work
[13] = set-up: method as in printed; conditions: patients taking this drug for months at a time; ref not given; cited from earlier work
physchem = conditions: DHFR enzymatic assay medium with 5% DMSO, 37 °C, aqueous with cosolvent or surfactant or cyclodextrin, kinetic from dmso stock
[14] = 11 μM DHFR, 130 μM ligand, 200 μM NADPH, […] DMSO, 25 °C

Sequence of proteins of U3A human fibrosarcoma cells (4462 proteins detected) (Homo sapiens, UniProt Q9NXV2) (Q9NXV2 whole entry): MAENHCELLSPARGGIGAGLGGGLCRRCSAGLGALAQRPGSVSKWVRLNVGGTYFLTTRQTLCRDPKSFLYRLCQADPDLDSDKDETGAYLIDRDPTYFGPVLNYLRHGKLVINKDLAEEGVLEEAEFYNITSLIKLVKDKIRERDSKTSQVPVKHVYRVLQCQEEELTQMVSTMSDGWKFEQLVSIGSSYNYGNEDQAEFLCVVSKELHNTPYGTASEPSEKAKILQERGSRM
Sequence of proteins of U3A human fibrosarcoma cells (4462 proteins detected) (Homo sapiens, UniProt P35232) (P35232 whole entry): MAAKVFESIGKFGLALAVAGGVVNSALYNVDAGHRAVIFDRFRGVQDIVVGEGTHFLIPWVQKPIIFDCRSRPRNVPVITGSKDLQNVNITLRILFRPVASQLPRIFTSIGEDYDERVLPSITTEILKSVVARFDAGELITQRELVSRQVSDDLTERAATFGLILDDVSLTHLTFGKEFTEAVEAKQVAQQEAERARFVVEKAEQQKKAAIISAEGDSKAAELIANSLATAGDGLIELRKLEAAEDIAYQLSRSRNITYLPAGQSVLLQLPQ
Sequence of CHCHD2 (Q9Y6H1 whole entry): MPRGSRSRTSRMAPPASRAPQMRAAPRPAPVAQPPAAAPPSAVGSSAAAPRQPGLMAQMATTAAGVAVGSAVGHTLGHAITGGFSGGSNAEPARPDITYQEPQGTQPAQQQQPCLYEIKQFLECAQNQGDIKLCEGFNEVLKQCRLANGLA

**Q.** With CCc1nc(N)nc(N)c1-c1ccc(Cl)cc1 [pyrimethamine] as the molecule, how does the “Log2 (PYR/DMSO)” value [1] read?
**A.** 0.16

**Q.** And the “Log2 (PYR/DMSO)” value [2]?
**A.** -0.04

**Q.** And the “DHFR aggregation temperature (Tagg) in the presence of drug” value (DHFR [3])?
**A.** ~53.2 °C

**Q.** What about the “DHFR aggregation temperature (Tagg) in the presence of drug” value (DHFR [4]) of the same molecule?
**A.** 50.6 °C

**Q.** And the “CHCHD2 stabilization by CETSA” value (CHCHD2)?
**A.** failed to validate

**Q.** What about the “reduction of cellular ATP levels” value (U3A cells) of the same molecule?
**A.** about 75%

**Q.** What about the viability at 6 h, 10 μM [5] of the same molecule?
**A.** ~100%

**Q.** What about the “OSM-stimulated BCL6 expression” value [6] of the same molecule?
**A.** significantly reduced

**Q.** And the “OSM-stimulated BCL6 expression” value [7]?
**A.** significantly reduced

**Q.** What about the “OSM-stimulated nuclear pSTAT3 or total STAT3” value [8] of the same molecule?
**A.** no effect

**Q.** What about the “LIF-stimulated STAT3 binding at BCL6” value [9] of the same molecule?
**A.** minimal reduction

**Q.** And the “pol II recruitment at BCL6” value [10]?
**A.** complete loss

**Q.** What about the ΔH (DHFR [11]; [14]) of the same molecule?
**A.** -11.6 ± 0.7 kcal/mol

**Q.** And the ΔS (DHFR [11]; [14])?
**A.** −2.8 ± 1 cal/mol/°C

**Q.** What about the stoichiometry (DHFR [11]; one-site model) of the same molecule?
**A.** 1.0 ± 0.2 sites

**Q.** What about the “difference in potency between pyrimethamine and methotrexate” value (DHFR [12]) of the same molecule?
**A.** ~500 fold

**Q.** What about the “transcriptional activity of STAT5” value (STAT5) of the same molecule?
**A.** no effect

**Q.** And the “inhibition of expression of STAT3-dependent genes in patients” value (STAT3-dependent genes)?
**A.** on-target activity

**Q.** And the “concentration routinely achieved in the serum of patients” value [13]?
**A.** 10 µM

**Q.** And the solubility (physchem)?
**A.** > 1000 µM
